Data as given in publication PMC5094908 (Journal of applied toxicology : JAT, 2016).

Columns and labels:
[1] = tested on: SH-SY5Y; details: cited from earlier work
[2] = tested on: LUHMES and dLUHMES cells

Compound: O=c1c(O)c(-c2ccc(O)c(O)c2)oc2cc(O)cc(O)c12 [QRC, Quercetin]
- In vitro neural selectivity (effect reported in SH-SY5Y) [1]: Toxic or protective in SH- SY5Y ([Ossola et al., 2008])
- cytotoxic sensitivity ([ATP] IC50) of LUHMES and/or dLUHMES relative to the other cell lines [2]: more sensitive than the other cell lines
